Assay results: patent US8664206B2, “Diastereomers of 2-methylene-19-nor-22-methyl-1α,25-dihydroxyvitamin D3” (Wisconsin Alumni Research Foundation, priority 2010, dated 2014)
“Also recorded” adds a separate entry of the source.

Key:
[1] = test system: 24-hydroxylase (24OHase) gene promoter; test: In vitro transcription assay (24-hydroxylase promoter-luciferase in ROS 17/2.8 bone cells); assay type: cell-based, rat; settings: for EC50: Rattus norvegicus; for 24OHase Transcription Relative Activity: relative to the native hormone 1,25(OH)2D3 in the same assay, (value for native hormone)/(value for working example), >1 = more active
Method: Transcription activity was measured in ROS 17/2.8 (bone) cells that were stably transfected with a 24-hydroxylase (24OHase) gene promoter upstream of a luciferase reporter gene (Arbour et al., 1998). Cells were given a range of doses. Sixteen hours after dosing the cells were harvested and luciferase activities were measured using a luminometer. RLU=relative luciferase units.

[2] = molecular target: T1, vitamin D receptor (full-length recombinant rat receptor) (Rattus norvegicus, UniProt P13053); test: Vitamin D receptor competitive binding; settings: for binding to the nuclear vitamin D receptor compared with 1,25(OH)2D3 (in words): competitive binding against 3H-1,25(OH)2D3, recombinant rat receptor; for Ki: read-out: Competitive VDR Binding (Ki)
T1 construct: Full-length recombinant rat receptor was expressed in E. coli; His tag (C); made in house; host or cells: E. coli BL21(DE3) Codon Plus RIL
T1 sequence (P13053 1-423): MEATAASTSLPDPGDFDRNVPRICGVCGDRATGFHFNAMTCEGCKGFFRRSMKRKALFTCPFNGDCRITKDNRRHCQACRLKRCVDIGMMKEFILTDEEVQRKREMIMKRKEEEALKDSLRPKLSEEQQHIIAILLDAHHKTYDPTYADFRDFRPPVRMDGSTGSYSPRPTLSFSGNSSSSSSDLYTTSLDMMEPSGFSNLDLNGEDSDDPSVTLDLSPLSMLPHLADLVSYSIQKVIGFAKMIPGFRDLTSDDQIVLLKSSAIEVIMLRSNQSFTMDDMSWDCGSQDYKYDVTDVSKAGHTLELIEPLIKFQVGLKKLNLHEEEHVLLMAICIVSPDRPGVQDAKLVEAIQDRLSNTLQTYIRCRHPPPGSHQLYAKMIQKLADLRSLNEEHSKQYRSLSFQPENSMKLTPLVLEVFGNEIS
Method: Full-length recombinant rat receptor was expressed in E. coli BL21(DE3) Codon Plus RIL cells and purified to homogeneity using two different column chromatography systems. The first system was a nickel affinity resin that utilizes the C-terminal histidine tag on this protein. The protein that was eluted from this resin was further purified using ion exchange chromatography (S-Sepharose Fast Flow). Aliquots of the purified protein were quick frozen in liquid nitrogen and stored at −80° C. until use. For use in binding assays, the protein was diluted in TEDK50 (50 mM Tris, 1.5 mM EDTA, pH 7.4, 5 mM DTT, 150 mM KCl) with 0.1% Chaps detergent. The receptor protein and ligand concentration was optimized such that no more than 20% of the added radiolabeled ligand was bound to the receptor.
Unlabeled ligands were dissolved in ethanol and the concentrations determined using UV spectrophotometry (1,25(OH)2D3: molar extinction coefficient=18,200 and λmax=265 nm; Analogs: molar extinction coefficient=42,000 and λmax=252 nm). Radiolabeled ligand (^3H-1,25(OH)2D3, ˜159 Ci/mmole) was added in ethanol at a final concentration of 1 nM.
Radiolabeled and unlabeled ligands were added to 100 mcl of the diluted protein at a final ethanol concentration of ≦10%, mixed and incubated overnight on ice to reach binding equilibrium. The following day, 100 mcl of hydroxylapatite slurry (50%) was added to each tube and mixed at 10-minute intervals for 30 minutes. The hydroxylapatite was collected by centrifugation and then washed three times with Tris-EDTA buffer (50 mM Tris, 1.5 mM EDTA, pH 7.4) containing 0.5% Titron X-100. After the final wash, the pellets were transferred to scintillation vials containing 4 ml of Biosafe II scintillation cocktail, mixed and placed in a scintillation counter. Total binding was determined from the tubes containing only radiolabeled ligand.

HL-60 cells = test: HL-60 differentiation (nitro blue tetrazolium reduction); assay type: cell-based, human; settings: for EC50: Homo sapiens, HL-60; for HL-60 Differentiation Relative Activity: relative to the native hormone 1,25(OH)2D3 in the same assay, (value for native hormone)/(value for working example), >1 = more active; for HL-60 cell differentiation, times more potent than the native hormone: fold MORE potent/active than 1,25(OH)2D3
Method: The study drugs were dissolved in ethanol and the concentrations determined using UV spectrophotometry. Serial dilutions were prepared so that a range of drug concentrations could be tested without changing the final concentration of ethanol (≦0.2%) present in the cell cultures.
Human promyelocytic leukemia (HL60) cells were grown in RPMI-1640 medium containing 10% fetal bovine serum. The cells were incubated at 37° C. in the presence of 5% CO2.
HL60 cells were plated at 1.2×10^5 cells/ml. Eighteen hours after plating, cells in duplicate were treated with drug. Four days later, the cells were harvested and a nitro blue tetrazolium reduction assay was performed (Collins et al., 1979; J. Exp. Med. 149:969-974). The percentage of differentiated cells was determined by counting a total of 200 cells and recording the number that contained intracellular black-blue formazan deposits. Verification of differentiation to monocytic cells was determined by measuring phagocytic activity (data not shown).

Sprague-Dawley rats [3] = test: Intestinal calcium transport (everted gut sac method); assay type: in vivo, rat; settings: for intestinal calcium transport activity compared with 1,25(OH)2D3 (in words) / net intestinal calcium transport, serosal to mucosal ratio: rat; for intestinal calcium transport activity compared with 1,25(OH)2D3 (in words): intraperitoneal doses; for net intestinal calcium transport, serosal to mucosal ratio: relative to vehicle
Method: (§1) Male, weanling Sprague-Dawley rats were placed on Diet 11 (0.47% Ca) diet+AEK oil for one week followed by Diet 11 (0.02% Ca)+AEK oil for 3 weeks. The rats were then switched to a diet containing 0.47% Ca for one week followed by two weeks on a diet containing 0.02% Ca. Dose administration began during the last week on 0.02% calcium diet. Four consecutive intraperitoneal doses were given approximately 24 hours apart. Twenty-four hours after the last dose, blood was collected from the severed neck and the concentration of serum calcium determined as a measure of bone calcium mobilization. The first 10 cm of the intestine was also collected for intestinal calcium transport analysis using the everted gut sac method.

Sprague-Dawley rats [4] = test: Bone calcium mobilization (serum calcium); assay type: in vivo, rat; settings: for bone calcium mobilization activity compared with 1,25(OH)2D3 (in words): intraperitoneal doses
Method: as §1

Row | Compound | EC50 [1] [pM] | Ki [2] [pM] | EC50 (HL-60 cells) [pM] | 24OHase Transcription Relative Activity [1] | binding to the nuclear vitamin D receptor compared with 1,25(OH)2D3 (in words) [2] | HL-60 Differentiation Relative Activity (HL-60 cells) | intestinal calcium transport activity compared with 1,25(OH)2D3 (in words) (Sprague-Dawley rats [3]) | bone calcium mobilization activity compared with 1,25(OH)2D3 (in words) (Sprague-Dawley rats [4]; rat) | 24-hydroxylase transcription activity compared with 1,25(OH)2D3 (in words) ([1]; bone cells) | cell differentiation activity (in words) (HL-60 cells) | net intestinal calcium transport, serosal to mucosal ratio (Sprague-Dawley rats [3]) | also measured
1 | C=C1[C@H](O)CC(=C/C=C2\CCC[C@@]3(C)C2CC[C@@H]3[C@@H](C)[C@H](C)CCC(C)(C)O)C[C@H]1O (stereo partly drawn) [AGS-1, (20S,22R)-2-methylene-19-nor-22-methyl-1α,25-dihydroxyvitamin D3] | 8 | 70 | 10 | 38 | approximately equally effective as 1,25-(OH)2D3; also recorded: same affinity as 1,25(OH)2D3; also recorded: bind the vitamin D receptor | 300 | more potent than 1,25-(OH)2D3; also recorded: higher potency in promoting intestinal calcium transport than the native hormone; also recorded: significantly higher | more potent than 1,25-(OH)2D3; also recorded: does show activity with regard to net bone calcium mobilization; also recorded: more efficacious; also recorded: significantly higher bone calcium mobilization activity | relatively high 24-hydroxylase transcription activity | relatively high cell differentiation activity | 4.3 | transcription of the 24-hydroxylase gene, times more potent than 1,25(OH)2D3 ([1]; bone cells, fold MORE potent): ~40 times; Net Intestinal Ca2+ Transport (serosal Ca2+ to mucosal Ca2+ ratio, S/M) (Sprague-Dawley rats [3]; at 780 pM dosage): 9.9; Net Bone Ca2+ Mobilization (Sprague-Dawley rats [4]; at 780 pM dosage): 5.3 mg/dL
2 | C=C1C(O)CC(=CC=C2CCCC3(C)C2CCC3[C@@H](C)CCCC(C)(C)O)CC1O (single isomer, unassigned) [20S isomer of 2MD, 2-methylene-19-nor-1α,25-dihydroxyvitamin D3, reference compound] |  |  |  |  |  |  |  |  |  |  | −0.9 | HL-60 cell differentiation, times more potent than the native hormone (HL-60 cells): 27 times; net bone calcium mobilization activity (Sprague-Dawley rats [4]; rat): 9.3 mg/dL
3 | C=C1C(O)CC(=CC=C2CCCC3(C)C2CCC3[C@@H](C)CCCC(C)(C)O)CC1O (single isomer, unassigned) [20R isomer of 2MD, 2-methylene-19-nor-1α,25-dihydroxyvitamin D3, reference compound] |  |  |  |  |  |  |  |  |  |  | −0.6 | HL-60 cell differentiation, times more potent than the native hormone (HL-60 cells): 0.95 times; net bone calcium mobilization activity (Sprague-Dawley rats [4]; rat): 4.5 mg/dL
4 | C=C1[C@H](O)CC(=C/C=C2\CCC[C@@]3(C)C2CC[C@@H]3[C@@H](C)[C@@H](C)CCC(C)(C)O)C[C@H]1O (stereo partly drawn) [AGS-2, (20S,22S)-2-methylene-19-nor-22-methyl-1α,25-dihydroxyvitamin D3] | 3000 | 8000 | 20000 | 0.1 | lower affinity relative to 1,25-(OH)2D3; also recorded: lower affinity than 1,25(OH)2D3; also recorded: bind the vitamin D receptor | 0.15 | significant net intestinal calcium transport; also recorded: comparable or slightly higher intestinal calcium transport compared to 1,25(OH)2D3 | much reduced ability to mobilize calcium from bone compared to 1,25-(OH)2D3; also recorded: no net calcemic activity on bone; also recorded: essentially no ability to mobilize bone calcium except at extremely high concentrations | relatively high 24-hydroxylase transcription activity | relatively high cell differentiation activity |  | transcription of the 24-hydroxylase gene, times less potent than 1,25(OH)2D3 ([1]; rat osteosarcoma cells, fold LESS potent): about 10 times; Net Intestinal Ca2+ Transport (serosal Ca2+ to mucosal Ca2+ ratio, S/M) (Sprague-Dawley rats [3]; at 780 pM dosage): 4.3; Net Bone Ca2+ Mobilization (Sprague-Dawley rats [4]; at 780 pM dosage): 0 mg/dL; bone calcium mobilization, times less potent than the native hormone (Sprague-Dawley rats [4]; rat, fold LESS potent in releasing bone calcium stores): approximately 50 times
5 | C=C1C(O)CC(=CC=C2CCCC3(C)C2CCC3[C@H](C)[C@H](C)CCC(C)(C)O)CC1O (stereo partly drawn) [SAG-2, (20R,22R)-2-methylene-19-nor-22-methyl-1α,25-dihydroxyvitamin D3] |  |  |  |  |  |  |  |  | unexpectedly low in comparison to the native hormone |  |  | 

Now from value to molecule, other results behind:

Row | EC50 [1] [pM] | Ki [2] [pM] | EC50 (HL-60 cells) [pM] | Compound | 24OHase Transcription Relative Activity [1] | binding to the nuclear vitamin D receptor compared with 1,25(OH)2D3 (in words) [2] | HL-60 Differentiation Relative Activity (HL-60 cells) | intestinal calcium transport activity compared with 1,25(OH)2D3 (in words) (Sprague-Dawley rats [3]) | bone calcium mobilization activity compared with 1,25(OH)2D3 (in words) (Sprague-Dawley rats [4]; rat) | 24-hydroxylase transcription activity compared with 1,25(OH)2D3 (in words) ([1]; bone cells) | cell differentiation activity (in words) (HL-60 cells) | net intestinal calcium transport, serosal to mucosal ratio (Sprague-Dawley rats [3]) | also measured
6 | 6000 | 200 | 9000 | C=C1[C@H](O)CC(=C/C=C2\CCC[C@@]3(C)C2CC[C@@H]3[C@H](C)[C@H](C)CCC(C)(C)O)C[C@H]1O (stereo partly drawn) [SAG-2, (20R,22R)-2-methylene-19-nor-22-methyl-1α,25-dihydroxyvitamin D3] | 0.05 | less effective than 1,25-(OH)2D3; also recorded: bind the vitamin D receptor | 0.3 | markedly lower than 1,25-(OH)2D3; also recorded: less potency compared to the native hormone; also recorded: little ability to increase transport, except at extremely high concentrations | markedly lower than 1,25-(OH)2D3; also recorded: no net calcemic activity on bone; also recorded: very little to no activity in mobilizing calcium from bone stores; also recorded: little or no ability to mobilize bone calcium, even at extremely high concentrations |  |  |  | affinity for the nuclear vitamin D receptor, times less than 1,25(OH)2D3 ([2]; competitive binding, fold LESS affinity than native hormone): approximately 4 times; Net Intestinal Ca2+ Transport (serosal Ca2+ to mucosal Ca2+ ratio, S/M) (Sprague-Dawley rats [3]; at 260 pM dosage): 0.4^7; Net Bone Ca2+ Mobilization (Sprague-Dawley rats [4]; at 260 pM dosage): −0.1^7 mg/dL
7 | 300 | 90 | 600 | C=C1[C@H](O)CC(=C/C=C2\CCC[C@@]3(C)C2CC[C@@H]3[C@H](C)[C@@H](C)CCC(C)(C)O)C[C@H]1O (stereo partly drawn) [SAG-1, (20R,22S)-2-methylene-19-nor-22-methyl-1α,25-dihydroxyvitamin D3] | 10 | bind the vitamin D receptor | 3.3 | comparable or reduced potency in comparison to 1,25(OH)2D3 at lower concentrations but increased potency in comparison to 1,25(OH)2D3 at high concentrations | less potent than 1,25-(OH)2D3; also recorded: no net calcemic activity on bone; also recorded: less potent than the native hormone; also recorded: little or no ability to mobilize bone calcium except at extremely high doses | approximately equal in potency to 1,25(OH)2D3 | relatively high cell differentiation activity |  | Net Intestinal Ca2+ Transport (serosal Ca2+ to mucosal Ca2+ ratio, S/M) (Sprague-Dawley rats [3]; at 260 pM dosage): 1.3^7; Net Bone Ca2+ Mobilization (Sprague-Dawley rats [4]; at 260 pM dosage): 0.3^7 mg/dL
